Test results from patent US20190388425A1, “SUBSTITUTED IMIDAZOPYRIDINPYRIMIDINES” (Bayer Pharma Aktiengesellschaft, priority 2017, published 2019).

target: T1, human full-length MKNK1 (Homo sapiens, UniProt Q9BUB5, T385D); assay: MKNK1 kinase high ATP assay (TR-FRET); format: biochemical; conditions: TR-FRET, 2 mM ATP (high ATP), 15 min preincubation with enzyme, 30 min reaction at 22° C.; read-out: MKNK1 IC50
T1 construct: GST (N); purchased Carna Biosciences 02-145; host or cells: insect cells (baculovirus expression system)
Description: MKNK1 Kinase High ATP Assay
MKNK1-inhibitory activity at high ATP of compounds of the present invention after their preincubation with MKNK1 was quantified employing the TR-FRET-based MKNK1 high ATP assay as described in the following paragraphs.
As substrate for the kinase reaction the biotinylated peptide biotin-Ahx-[…] (C-terminus in amide form) was used, which can be purchased e.g. from the company Biosyntan (Berlin-Buch, Germany).
For the assay 50 nL of a 100 fold concentrated solution of the test compound in DMSO was pipetted into a black low volume 384 well microtiter plate (Greiner Bio-One, Frickenhausen, Germany), 2 μL of a solution of MKNK1 in aqueous assay buffer [50 mM HEPES pH 7.5, 5 mM MgCl2, 1.0 mM dithiothreitol, 0.005% (v/v) Nonidet-P40 (Sigma)] was added and the mixture was incubated for 15 min at 22° C. to allow pre-binding of the test compounds to the enzyme before the start of the kinase reaction. Then the kinase reaction was started by the addition of 3 μL of a solution of adenosine-tri-phosphate (ATP, 3.3 mM=>final conc. in the 5 μL assay volume is 2 mM) and substrate (0.1 μM=>final conc. in the 5 μL assay volume is 0.06 μM) in assay buffer and the resulting mixture was incubated for a reaction time of 30 min at 22° C. The concentration of MKNK1 was adjusted depending of the activity of the enzyme lot and was chosen appropriate to have the assay in the linear range, typical concentrations were in the range of 0.003 μg/mL. The reaction was stopped by the addition of 5 μL of a solution of TR-FRET detection reagents (5 nM streptavidine-XL665 [Cisbio Bioassays, Codolet, France] and 1 nM anti-ribosomal protein S6 (pSer236)-antibody from Invitrogen [#44921G] and 1 nM LANCE EU-W1024 labeled ProteinG [Perkin-Elmer, product no. AD0071]) in an aqueous EDTA-solution (100 mM EDTA, 0.1% (w/v) bovine serum albumin in 50 mM HEPES pH 7.5).
The resulting mixture was incubated for 1 h at 22° C. to allow the formation of complex between the phosphorylated biotinylated peptide and the detection reagents. Subsequently the amount of phosphorylated substrate was evaluated by measurement of the resonance energy transfer from the Eu-chelate to the streptavidine-XL. Therefore, the fluorescence emissions at 620 nm and 665 nm after excitation at 350 nm were measured in a TR-FRET reader, e.g. a Rubystar (BMG Labtechnologies, Offenburg, Germany) or a Viewlux (Perkin-Elmer). The ratio of the emissions at 665 nm and at 622 nm was taken as the measure for the amount of phosphorylated substrate.

T1 sequence (Q9BUB5 1-424 isoform Q9BUB5-2 T344D): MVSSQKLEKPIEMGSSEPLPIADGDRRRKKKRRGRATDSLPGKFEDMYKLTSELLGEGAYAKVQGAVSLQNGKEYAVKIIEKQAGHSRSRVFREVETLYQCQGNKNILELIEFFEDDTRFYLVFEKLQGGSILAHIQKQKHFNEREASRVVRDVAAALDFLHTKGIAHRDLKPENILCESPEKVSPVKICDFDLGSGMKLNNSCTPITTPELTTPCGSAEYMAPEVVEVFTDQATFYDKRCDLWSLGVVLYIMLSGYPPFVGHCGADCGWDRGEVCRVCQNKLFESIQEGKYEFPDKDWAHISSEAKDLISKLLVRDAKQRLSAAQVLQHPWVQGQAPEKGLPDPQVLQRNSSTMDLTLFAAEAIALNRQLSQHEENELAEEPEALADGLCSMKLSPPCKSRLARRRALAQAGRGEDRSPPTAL

Structure (SMILES)	IC50 [nM]
Cc1cc(Nc2ncnc3sc4c(c23)CC[C@H](C(=O)O)C4)c(=O)n2c1C(=O)N[C@]21CC[C@@](O)(C(F)(F)F)CC1 [Example 59, (7S)-4-{[(cis)-4-Hydroxy-8′-methyl-1′,5′-dioxo-4-(trifluoromethyl)-1′,5′-dihydro-2′H-spiro[cyclohexane-1,3′-imidazo[1,5-a]pyridin]-6′-yl]amino}-5,6,7,8-tetrahydro[1]benzothieno[2,3-d]pyrimidine-7-carboxylic acid]	37.9
Cc1cc(Nc2ncnc3sc4c(c23)CC[C@H](C(=O)N2CC(C)(O)C2)C4)c(=O)n2c1C(=O)NC21CCCCC1 [Example 6, 6′-({(7S)-7-[(3-Hydroxy-3-methylazetidin-1-yl)carbonyl]-5,6,7,8-tetrahydro[1]benzothieno[2,3-d]pyrimidin-4-yl}amino)-8′-methyl-2′H-spiro[cyclohexane-1,3′-imidazo[1,5-a]pyridine]-1′,5′-dione]	1.5
C[C@@H]1CN(C(=O)[C@H]2CCc3c(sc4ncnc(Nc5cc(Cl)c6n(c5=O)C5(CCC5)NC6=O)c34)C2)CCN1C [Example 100, 8′-Chloro-6′-({(7S)-7-[(3R)-3,4-dimethylpiperazine-1-carbonyl]-5,6,7,8-tetrahydro[1]benzothieno[2,3-d]pyrimidin-4-yl}amino)-2′H-spiro[cyclobutane-1,3′-imidazo[1,5-a]pyridine]-1′,5′-dione]	0.1
Cc1cc(Nc2ncnc3sc4c(c23)CC[C@H](C(=O)N2CC[C@H](N(C)C)C2)C4)c(=O)n2c1C(=O)NC21CSC1 [Example 49, 6-{[(7S)-7-{[(3S)-3-(Dimethylamino)pyrrolidin-1-yl]carbonyl}-5,6,7,8-tetrahydro[1]benzothieno[2,3-d]pyrimidin-4-yl]amino}-8-methyl-2H-spiro[imidazo[1,5-a]pyridine-3,3′-thietane]-1,5-dione]	0.5
C[C@@H]1CN(C(=O)[C@H]2CCc3c(sc4ncnc(Nc5cc(Cl)c6n(c5=O)C(C)(C)NC6=O)c34)C2)CCN1C [Example 115, 8-Chloro-6-({(7S)-7-[(3R)-3,4-dimethylpiperazine-1-carbonyl]-5,6,7,8-tetrahydro[1]benzothieno[2,3-d]pyrimidin-4-yl}amino)-3,3-dimethyl-2,3-dihydroimidazo[1,5-a]pyridine-1,5-dione]	0.2
CN(C)[C@H]1CCN(C(=O)[C@H]2CCc3c(sc4ncnc(Nc5cc(Cl)c6n(c5=O)C5(CCC5)NC6=O)c34)C2)C1 [Example 98, 8′-Chloro-6′-({(7S)-7-[(3S)-3-(dimethylamino)pyrrolidine-1-carbonyl]-5,6,7,8-tetrahydro[1]benzothieno[2,3-d]pyrimidin-4-yl}amino)-2′H-spiro[cyclobutane-1,3′-imidazo[1,5-a]pyridine]-1′,5′-dione]	< 0.1
C[C@@H]1CN(C(=O)[C@H]2CCc3c(sc4ncnc(Nc5cc(Cl)c6n(c5=O)C5(CSC5)NC6=O)c34)C2)CCN1C [Example 107, 8-Chloro-6-({(7S)-7-[(3R)-3,4-dimethylpiperazine-1-carbonyl]-5,6,7,8-tetrahydro[1]benzothieno[2,3-d]pyrimidin-4-yl}amino)-2H-spiro[imidazo[1,5-a]pyridine-3,3′-thietane]-1,5-dione]	0.2
Cc1cc(Nc2ncnc3sc4c(c23)CC[C@H](C(=O)N2CC(N(C)C)C2)C4)c(=O)n2c1C(=O)NC21CSC1 [Example 48, 6-{[(7S)-7-{[3-(Dimethylamino)azetidin-1-yl]carbonyl}-5,6,7,8-tetrahydro[1]benzothieno[2,3-d]pyrimidin-4-yl]amino}-8-methyl-2H-spiro[imidazo[1,5-a]pyridine-3,3′-thietane]-1,5-dione]	0.4
Cc1cc(Nc2ncnc3sc4c(c23)CC[C@H](C(=O)N2C[C@H]3C[C@@H]2CO3)C4)c(=O)n2c1C(=O)NC21CCC(F)(F)CC1 [Example 58, 4,4-Difluoro-8′-methyl-6′-({(7S)-7-[(1R,4R)-2-oxa-5-azabicyclo[2.2.1]hept-5-ylcarbonyl]-5,6,7,8-tetrahydro[1]benzothieno[2,3-d]pyrimidin-4-yl}amino)-2′H-spiro[cyclohexane-1,3′-imidazo[1,5-a]pyridine]-1′,5′-dione]	0.5
Cc1cc(Nc2ncnc3sc4c(c23)CC[C@H](C(=O)N2CCC2)C4)c(=O)n2c1C(=O)NC21CS(=O)(=O)C1 [Example 67, 6-{[(7S)-7-(Azetidin-1-ylcarbonyl)-5,6,7,8-tetrahydro[1]benzothieno[2,3-d]pyrimidin-4-yl]amino}-8-methyl-2H-spiro[imidazo[1,5-a]pyridine-3,3′-thietane]-1,5-dione 1′,1′-dioxide]	2
Cc1cc(Nc2ncnc3sc4c(c23)CC[C@H](C(=O)O)C4)c(=O)n2c1C(=O)NC2(C)C [Example 15, (7S)-4-[(3,3,8-Trimethyl-1,5-dioxo-1,2,3,5-tetrahydroimidazo[1,5-a]pyridin-6-yl)amino]-5,6,7,8-tetrahydro[1]benzothieno[2,3-d]pyrimidine-7-carboxylic acid]	15.6
Cc1cc(Nc2ncnc3sc4c(c23)CC[C@H](C(=O)N2CC(C#N)C2)C4)c(=O)n2c1C(=O)NC21CCC1 [Example 22, 1-({(7S)-4-[(8′-Methyl-1′,5′-dioxo-1′,5′-dihydro-2′H-spiro[cyclobutane-1,3′-imidazo[1,5-a]pyridin]-6′-yl)amino]-5,6,7,8-tetrahydro[1]benzothieno[2,3-d]pyrimidin-7-yl}carbonyl)azetidine-3-carbonitrile]	0.5
Cc1cc(Nc2ncnc3sc4c(c23)CC[C@H](C(=O)N2CCC2)C4)c(=O)n2c1C(=O)N[C@]21CC[C@@](O)(C(F)(F)F)CC1 [Example 61, (cis)-6′-{[(7S)-7-(Azetidin-1-ylcarbonyl)-5,6,7,8-tetrahydro[1]benzothieno[2,3-d]pyrimidin-4-yl]amino}-4-hydroxy-8′-methyl-4-(trifluoromethyl)-2′H-spiro[cyclohexane-1,3′-imidazo[1,5-a]pyridine]-1′,5′-dione]	8.4
N#CC1CN(C(=O)[C@H]2CCc3c(sc4ncnc(Nc5cc(Cl)c6n(c5=O)C5(CCC5)NC6=O)c34)C2)C1 [Example 97, 1-{(7S)-4-[(8′-Chloro-1′,5′-dioxo-1′,5′-dihydro-2′H-spiro[cyclobutane-1,3′-imidazo[1,5-a]pyridin]-6′-yl)amino]-5,6,7,8-tetrahydro[1]benzothieno[2,3-d]pyrimidine-7-carbonyl}azetidine-3-carbonitrile]	0.1
Cc1cc(Nc2ncnc3sc4c(c23)CC[C@H](C(=O)N2C[C@H]3C[C@@H]2CO3)C4)c(=O)n2c1C(=O)NC21CCC1 [Example 26, 8′-Methyl-6′-({(7S)-7-[(1R,4R)-2-oxa-5-azabicyclo[2.2.1]hept-5-ylcarbonyl]-5,6,7,8-tetrahydro[1]benzothieno[2,3-d]pyrimidin-4-yl}amino)-2′H-spiro[cyclobutane-1,3′-imidazo[1,5-a]pyridine]-1′,5′-dione]	0.7
O=C1NC2(CCCCC2)n2c1c(Cl)cc(Nc1ncnc3sc4c(c13)CC[C@H](C(=O)N1CCC1)C4)c2=O [Example 76, 6′-{[(7S)-7-(Azetidin-1-ylcarbonyl)-5,6,7,8-tetrahydro[1]benzothieno[2,3-d]pyrimidin-4-yl]amino}-8′-chloro-2′H-spiro[cyclohexane-1,3′-imidazo[1,5-a]pyridine]-1′,5′-dione]	0.9
Cc1cc(Nc2ncnc3sc4c(c23)CC[C@H](C(=O)N(C)C)C4)c(=O)n2c1C(=O)NC2(C)C [Example 27, (7S)—N,N-Dimethyl-4-[(3,3,8-trimethyl-1,5-dioxo-1,2,3,5-tetrahydroimidazo[1,5-a]pyridin-6-yl)amino]-5,6,7,8-tetrahydro[1]benzothieno[2,3-d]pyrimidine-7-carboxamide]	2
NC(=O)[C@H]1CCc2c(sc3ncnc(Nc4cc(Cl)c5n(c4=O)C4(CCCCC4)NC5=O)c23)C1 [Example 74, (7S)-4-[(8′-Chloro-1′,5′-dioxo-1′,5′-dihydro-2′H-spiro[cyclohexane-1,3′-imidazo[1,5-a]pyridin]-6′-yl)amino]-5,6,7,8-tetrahydro[1]benzothieno[2,3-d]pyrimidine-7-carboxamide]	0.9
